{"source": "paper PMC5218480", "about": "(PLoS ONE, 2017)", "system": "MV-4-11 cells", "experiment": "Gene expression microarray analysis (Affymetrix PrimeView) and GSEA", "type": "cell-based, human", "parameters": "RFU PODN (11730768_x_at) / Fold change /veh PODN (11730768_x_at) / RFU LINC00158 (11744669_a_at) / Fold change /veh LINC00158 (11744669_a_at) / RFU DUSP10 (11751237_a_at) / Fold change /veh DUSP10 (11751237_a_at) / RFU ID3 (11757404_x_at) / Fold change /veh ID3 (11757404_x_at) / RFU PLEKHG5 (11737974_s_at) / Fold change /veh PLEKHG5 (11737974_s_at) / RFU LRRC4B (11730491_at) / Fold change /veh LRRC4B (11730491_at) / RFU GIMAP4 (11747438_a_at) / Fold change /veh GIMAP4 (11747438_a_at) / RFU KRT8 (11758183_x_at) / Fold change /veh KRT8 (11758183_x_at) / RFU CNN1 (11734310_a_at) / Fold change /veh CNN1 (11734310_a_at) / RFU VPS37D (11726825_at) / Fold change /veh VPS37D (11726825_at) / RFU C10orf10 (11716522_x_at) / Fold change /veh C10orf10 (11716522_x_at) / RFU KIR2DL2 /// KIR2DL4 /// KIR2DL5A /// KIR2DL5B /// KIR2DS1 /// KIR2DS2 /// KIR2DS3 /// KIR2DS4 /// KIR3DL3 /// KIR3DL3 /// KIR3DS1 (11738374_at) / Fold change /veh KIR2DL2 /// KIR2DL4 /// KIR2DL5A /// KIR2DL5B /// KIR2DS1 /// KIR2DS2 /// KIR2DS3 /// KIR2DS4 /// KIR3DL3 /// KIR3DL3 /// KIR3DS1 (11738374_at) / RFU C1QL1 (11718748_at) / Fold change /veh C1QL1 (11718748_at) / RFU TMPRSS4 (11747572_a_at) / Fold change /veh TMPRSS4 (11747572_a_at) / RFU HAMP (11756126_x_at) / Fold change /veh HAMP (11756126_x_at) / RFU RNFT2 (11725882_a_at) / Fold change /veh RNFT2 (11725882_a_at) / RFU NR4A2 (11747474_a_at) / Fold change /veh NR4A2 (11747474_a_at) / RFU ABCC12 (11746883_a_at) / Fold change /veh ABCC12 (11746883_a_at) / RFU TMEM136 (11760407_x_at) / Fold change /veh TMEM136 (11760407_x_at) / RFU CLDN22 /// WWC2 (11732394_at) / Fold change /veh CLDN22 /// WWC2 (11732394_at) / RFU HLA-DPB1 (11760878_x_at) / Fold change /veh HLA-DPB1 (11760878_x_at) / RFU SPINT1 (11716480_a_at) / Fold change /veh SPINT1 (11716480_a_at) / RFU GAP43 (11754022_s_at) / Fold change /veh GAP43 (11754022_s_at) / RFU A4GNT (11735810_at) / Fold change /veh A4GNT (11735810_at) / RFU PRB3 (11715151_x_at) / Fold change /veh PRB3 (11715151_x_at) / RFU TUBB4B (11761932_at) / Fold change /veh TUBB4B (11761932_at) / RFU CAPN14 (11732068_a_at) / Fold change /veh CAPN14 (11732068_a_at) / RFU TMCC2 (11721928_a_at) / Fold change /veh TMCC2 (11721928_a_at) / RFU IRGQ (11745062_a_at) / Fold change /veh IRGQ (11745062_a_at) / RFU FAM174B (11720279_a_at) / Fold change /veh FAM174B (11720279_a_at) / RFU TMPRSS4 (11748680_a_at) / Fold change /veh TMPRSS4 (11748680_a_at) / RFU FAM212B (11763350_a_at) / Fold change /veh FAM212B (11763350_a_at) / RFU PLEKHG5 (11743358_a_at) / Fold change /veh PLEKHG5 (11743358_a_at) / RFU ZSCAN30 (11745921_a_at) / Fold change /veh ZSCAN30 (11745921_a_at) / RFU CMKLR1 (11741424_a_at) / Fold change /veh CMKLR1 (11741424_a_at) / RFU LOC101060620 /// MAPK8IP1 (11723275_at) / Fold change /veh LOC101060620 /// MAPK8IP1 (11723275_at) / RFU SPTSSB (11747773_x_at) / Fold change /veh SPTSSB (11747773_x_at) / RFU PRSS12 (11739890_at) / Fold change /veh PRSS12 (11739890_at) / RFU BIN1 (11741810_x_at) / Fold change /veh BIN1 (11741810_x_at) / RFU WNT11 (11732464_a_at) / Fold change /veh WNT11 (11732464_a_at) / RFU C10orf10 (11716521_a_at) / Fold change /veh C10orf10 (11716521_a_at) / RFU C5orf56 (11738089_at) / Fold change /veh C5orf56 (11738089_at) / RFU CYB561 (11721691_x_at) / Fold change /veh CYB561 (11721691_x_at) / RFU ANKRD19P (11752326_a_at) / Fold change /veh ANKRD19P (11752326_a_at) / RFU OR2T12 /// OR2T33 /// OR2T8 (11738714_s_at) / Fold change /veh OR2T12 /// OR2T33 /// OR2T8 (11738714_s_at) / RFU VCAN (11748164_a_at) / Fold change /veh VCAN (11748164_a_at) / RFU JSRP1 (11732532_at) / Fold change /veh JSRP1 (11732532_at) / RFU KRTAP10-11 (11738290_x_at) / Fold change /veh KRTAP10-11 (11738290_x_at) / RFU MYO3A (11730013_a_at) / Fold change /veh MYO3A (11730013_a_at) / RFU EBF3 (11725865_a_at) / Fold change /veh EBF3 (11725865_a_at) / RFU CAMK2N1 (11719241_x_at) / Fold change /veh CAMK2N1 (11719241_x_at) / RFU C5orf56 (11738088_a_at) / Fold change /veh C5orf56 (11738088_a_at) / RFU OLFML3 (11715873_a_at) / Fold change /veh OLFML3 (11715873_a_at) / RFU LOC100653217 /// NTM (11731650_a_at) / Fold change /veh LOC100653217 /// NTM (11731650_a_at) / RFU MAPK11 (11762145_a_at) / Fold change /veh MAPK11 (11762145_a_at) / RFU FIZ1 (11724087_x_at) / Fold change /veh FIZ1 (11724087_x_at) / RFU OASL (11726364_x_at) / Fold change /veh OASL (11726364_x_at) / RFU SOX15 (11748057_x_at) / Fold change /veh SOX15 (11748057_x_at) / RFU CD79A (11719716_a_at) / Fold change /veh CD79A (11719716_a_at) / RFU HIST1H1D (11736915_at) / Fold change /veh HIST1H1D (11736915_at) / RFU CASKIN2 (11723855_a_at) / Fold change /veh CASKIN2 (11723855_a_at) / RFU LOC730098 (11760151_x_at) / Fold change /veh LOC730098 (11760151_x_at) / RFU OR4N2 (11742367_at) / Fold change /veh OR4N2 (11742367_at) / RFU PRRT2 (11749266_a_at) / Fold change /veh PRRT2 (11749266_a_at) / RFU SNX32 (11753110_a_at) / Fold change /veh SNX32 (11753110_a_at) / RFU CDHR5 (11726645_a_at) / Fold change /veh CDHR5 (11726645_a_at) / RFU RCAN1 (11760418_a_at) / Fold change /veh RCAN1 (11760418_a_at) / RFU FAM167A (11723789_a_at) / Fold change /veh FAM167A (11723789_a_at) / RFU FAM26E (11764081_at) / Fold change /veh FAM26E (11764081_at) / RFU ISYNA1 (11749810_s_at) / Fold change /veh ISYNA1 (11749810_s_at) / RFU ACY1 (11761880_at) / Fold change /veh ACY1 (11761880_at) / RFU 11764098_at / Fold change /veh 11764098_at / RFU SAMD14 (11745864_x_at) / Fold change /veh SAMD14 (11745864_x_at) / RFU NPB (11741838_a_at) / Fold change /veh NPB (11741838_a_at) / RFU TMPRSS6 (11731388_a_at) / Fold change /veh TMPRSS6 (11731388_a_at) / RFU KRTAP10-2 (11738614_at) / Fold change /veh KRTAP10-2 (11738614_at) / RFU ARHGAP8 /// PRR5-ARHGAP8 (11727945_x_at) / Fold change /veh ARHGAP8 /// PRR5-ARHGAP8 (11727945_x_at) / RFU KRTAP5-7 /// NADSYN1 (11734609_at) / Fold change /veh KRTAP5-7 /// NADSYN1 (11734609_at) / RFU RASL12 (11751679_a_at) / Fold change /veh RASL12 (11751679_a_at) / RFU CDKN2B (11736163_a_at) / Fold change /veh CDKN2B (11736163_a_at) / RFU PRF1 (11729649_at) / Fold change /veh PRF1 (11729649_at) / RFU, ZNF638 /// ZNF638-IT1 / Fold change vs veh, ZNF638 /// ZNF638-IT1 / RFU, PANK3 / Fold change vs veh, PANK3 / RFU, SH3YL1 / Fold change vs veh, SH3YL1 / RFU, ZEB2 / Fold change vs veh, ZEB2 / RFU, NRIP1 / Fold change vs veh, NRIP1 / RFU, PTTG1IP / Fold change vs veh, PTTG1IP / RFU, CAPN2 / Fold change vs veh, CAPN2 / RFU, MED14 / Fold change vs veh, MED14 / RFU, SNORA58 / Fold change vs veh, SNORA58 / RFU, C1orf63 / Fold change vs veh, C1orf63 / RFU, LRRFIP1 / Fold change vs veh, LRRFIP1 / RFU, NDUFAF7 / Fold change vs veh, NDUFAF7 / RFU, SLC12A2 / Fold change vs veh, SLC12A2 / RFU, IBTK / Fold change vs veh, IBTK / RFU, ESF1 / Fold change vs veh, ESF1 / Fold change vs veh, TMEM50B / RFU, TAOK1 / Fold change vs veh, TAOK1 / RFU, ACBD3 / Fold change vs veh, ACBD3 / RFU, TMA16 / Fold change vs veh, TMA16 / RFU, RWDD3 / Fold change vs veh, RWDD3 / RFU, BCAT1 / Fold change vs veh, BCAT1 / RFU, EDEM3 / Fold change vs veh, EDEM3 / RFU, TMEM33 / Fold change vs veh, TMEM33 / RFU, WDR75 / Fold change vs veh, WDR75 / RFU, AHCTF1 / Fold change vs veh, AHCTF1 / RFU, TFRC / Fold change vs veh, TFRC / RFU, ZDHHC17 / Fold change vs veh, ZDHHC17 / RFU, NOM1 / Fold change vs veh, NOM1 / RFU, ARL8B / Fold change vs veh, ARL8B / RFU, ZBTB11 / Fold change vs veh, ZBTB11 / RFU, TAMM41 / Fold change vs veh, TAMM41 / RFU, KIAA1704 /// LOC100996395 / Fold change vs veh, KIAA1704 /// LOC100996395 / RFU, ING1 / Fold change vs veh, ING1 / RFU, TRMT61B / Fold change vs veh, TRMT61B / RFU, FUBP3 / Fold change vs veh, FUBP3 / RFU, TP53 / Fold change vs veh, TP53 / RFU, TNKS2 / Fold change vs veh, TNKS2 / RFU, ZFP14 / Fold change vs veh, ZFP14 / RFU, ACTR2 / Fold change vs veh, ACTR2 / RFU, PPP3R1 / Fold change vs veh, PPP3R1 / RFU, PIK3R1 / Fold change vs veh, PIK3R1 / RFU, HNRNPA1 / Fold change vs veh, HNRNPA1 / RFU, RNF170 / Fold change vs veh, RNF170 / RFU, ZNF28 / Fold change vs veh, ZNF28 / RFU, RNGTT / Fold change vs veh, RNGTT / RFU, OGT / Fold change vs veh, OGT / RFU, BRD1 / Fold change vs veh, BRD1 / RFU, MARS / Fold change vs veh, MARS / RFU, ZNF655 / Fold change vs veh, ZNF655 / RFU, FAHD1 / Fold change vs veh, FAHD1 / RFU, BDP1 / Fold change vs veh, BDP1 / RFU, LRRCC1 / Fold change vs veh, LRRCC1 / RFU, ARID1A / Fold change vs veh, ARID1A / RFU, ZNF146 / Fold change vs veh, ZNF146 / RFU, ZNF330 / Fold change vs veh, ZNF330 / RFU, GPN3 / Fold change vs veh, GPN3 / RFU, C9orf123 / Fold change vs veh, C9orf123 / RFU, N4BP2L2 / Fold change vs veh, N4BP2L2 / RFU, ARFIP1 / Fold change vs veh, ARFIP1 / RFU, FAM179B / Fold change vs veh, FAM179B / RFU, BCL10 / Fold change vs veh, BCL10 / RFU, UHRF1BP1L / Fold change vs veh, UHRF1BP1L / RFU, BET1 / Fold change vs veh, BET1 / RFU, CNOT2 / Fold change vs veh, CNOT2 / RFU, ZNF268 / Fold change vs veh, ZNF268 / Fold change vs veh, ZNF507 / RFU, DGCR2 / Fold change vs veh, DGCR2 / RFU, WDSUB1 / Fold change vs veh, WDSUB1 / Fold change vs veh, HSP90B1 /// MIR3652 / RFU, ADSS / Fold change vs veh, ADSS / RFU, GK / Fold change vs veh, GK / RFU, ZNF148 / Fold change vs veh, ZNF148 / RFU, TAF9 / Fold change vs veh, TAF9 / RFU, SLC1A5 / Fold change vs veh, SLC1A5 / RFU, SLMO2 / Fold change vs veh, SLMO2 / RFU, ABCC4 / Fold change vs veh, ABCC4 / RFU, LOC101060439 /// RAP1B / Fold change vs veh, LOC101060439 /// RAP1B / RFU, RFX7 / Fold change vs veh, RFX7 / RFU, GTPBP10 / Fold change vs veh, GTPBP10 / RFU, CNEP1R1 / Fold change vs veh, CNEP1R1 / RFU, BIVM-ERCC5 /// ERCC5 / Fold change vs veh, BIVM-ERCC5 /// ERCC5 / RFU, ILF3 / Fold change vs veh, ILF3 / RFU 11762660_at / Fold change /veh 11762660_at / RFU VCAN (11757783_s_at) / Fold change /veh VCAN (11757783_s_at) / RFU DDX43 (11728927_at) / Fold change /veh DDX43 (11728927_at) / RFU KRT8 (11758188_x_at) / Fold change /veh KRT8 (11758188_x_at) / RFU NKD1 (11759106_at) / Fold change /veh NKD1 (11759106_at) / RFU SRD5A1 (11742802_a_at) / Fold change /veh SRD5A1 (11742802_a_at) / RFU TPSAB1 /// TPSB2 (11721975_s_at) / Fold change /veh TPSAB1 /// TPSB2 (11721975_s_at) / RFU GSTM3 (11746129_a_at) / Fold change /veh GSTM3 (11746129_a_at) / RFU IL23R (11737362_x_at) / Fold change /veh IL23R (11737362_x_at) / RFU TMEM51 (11727254_a_at) / Fold change /veh TMEM51 (11727254_a_at) / RFU PIWIL2 (11732686_x_at) / Fold change /veh PIWIL2 (11732686_x_at) / RFU ORM1 (11744905_x_at) / Fold change /veh ORM1 (11744905_x_at) / RFU CCDC152 (11743942_at) / Fold change /veh CCDC152 (11743942_at) / RFU ECM1 (11717891_a_at) / Fold change /veh ECM1 (11717891_a_at) / RFU IL23R (11748794_a_at) / Fold change /veh IL23R (11748794_a_at) / RFU TNFAIP8L3 (11732012_x_at) / Fold change /veh TNFAIP8L3 (11732012_x_at) / RFU MBOAT4 (11741988_at) / Fold change /veh MBOAT4 (11741988_at) / RFU 11764193_at / Fold change /veh 11764193_at / RFU TMEM53 (11763286_at) / Fold change /veh TMEM53 (11763286_at) / RFU MAGEB2 (11727129_at) / Fold change /veh MAGEB2 (11727129_at) / RFU TMEM200A (11744735_a_at) / Fold change /veh TMEM200A (11744735_a_at) / RFU CCDC152 (11751479_a_at) / Fold change /veh CCDC152 (11751479_a_at) / RFU FAM211A (11726209_a_at) / Fold change /veh FAM211A (11726209_a_at) / RFU RGS16 (11746705_a_at) / Fold change /veh RGS16 (11746705_a_at) / RFU VCAN (11755009_s_at) / Fold change /veh VCAN (11755009_s_at) / RFU RHOB (11743442_s_at) / Fold change /veh RHOB (11743442_s_at) / RFU RGS16 (11720943_a_at) / Fold change /veh RGS16 (11720943_a_at) / RFU RGS16 (11720944_at) / Fold change /veh RGS16 (11720944_at) / RFU, VPS4B / Fold change vs veh, VPS4B / RFU, CREB1 / Fold change vs veh, CREB1 / RFU, DNAJC13 / Fold change vs veh, DNAJC13 / RFU, GNAQ / Fold change vs veh, GNAQ / RFU, CDK5R1 / Fold change vs veh, CDK5R1 / RFU, ZRANB3 / Fold change vs veh, ZRANB3 / RFU, CUL4A / Fold change vs veh, CUL4A / RFU, CCNY / Fold change vs veh, CCNY / RFU, UFL1 / Fold change vs veh, UFL1 / RFU, COG3 / Fold change vs veh, COG3 / RFU, DIAPH2 / Fold change vs veh, DIAPH2 / RFU, SKA2 / Fold change vs veh, SKA2 / RFU, AFF3 / Fold change vs veh, AFF3 / RFU, LMF1 / Fold change vs veh, LMF1 / RFU, IPO11 / Fold change vs veh, IPO11 / RFU, DFFB / Fold change vs veh, DFFB / RFU, FOXP1 / Fold change vs veh, FOXP1 / RFU, CARD8 / Fold change vs veh, CARD8 / RFU, STRN3 / Fold change vs veh, STRN3 / RFU, ADK / Fold change vs veh, ADK / RFU, RASSF2 / Fold change vs veh, RASSF2 / RFU, WIPF1 / Fold change vs veh, WIPF1 / RFU, LARP1B / Fold change vs veh, LARP1B / RFU, RASA1 / Fold change vs veh, RASA1 / RFU, RB1 / Fold change vs veh, RB1 / RFU, PPFIA1 / Fold change vs veh, PPFIA1 / RFU, MAT2A / Fold change vs veh, MAT2A / RFU, CCT5 / Fold change vs veh, CCT5 / RFU, WDR92 / Fold change vs veh, WDR92 / RFU, CUX1 / Fold change vs veh, CUX1 / RFU, TTC7A / Fold change vs veh, TTC7A / RFU, TMEM135 / Fold change vs veh, TMEM135 / RFU, DEPTOR / Fold change vs veh, DEPTOR / RFU, CPM / Fold change vs veh, CPM / RFU, DNAJB6 / Fold change vs veh, DNAJB6 / RFU, CACNA2D3 / Fold change vs veh, CACNA2D3 / RFU, DTX4 / Fold change vs veh, DTX4 / RFU, TFCP2 / Fold change vs veh, TFCP2 / RFU, GMCL1 /// GMCL1P1 / Fold change vs veh, GMCL1 /// GMCL1P1 / RFU, AEBP2 / Fold change vs veh, AEBP2 / RFU, SNHG1 /// SNORD22 /// SNORD25 /// SNORD26 /// SNORD27 /// SNORD28 /// SNORD29 /// SNORD31 / Fold change vs veh, SNHG1 /// SNORD22 /// SNORD25 /// SNORD26 /// SNORD27 /// SNORD28 /// SNORD29 /// SNORD31 / Fold change (Aza/veh), C12orf56 (ProbeSet 11735607_a_at) / Fold change (ACY-1035/veh), C12orf56 (ProbeSet 11735607_a_at) / Fold change (Aza/veh), FGFR1OP (ProbeSet 11751329_s_at) / Fold change (ACY-1035/veh), FGFR1OP (ProbeSet 11751329_s_at) / Fold change (Aza/veh), VPS36 (ProbeSet 11739960_a_at) / Fold change (ACY-1035/veh), VPS36 (ProbeSet 11739960_a_at) / RFU SYPL1 (11715823_x_at) / Fold change /veh SYPL1 (11715823_x_at) / RFU IGFBP7 (11715501_s_at) / Fold change /veh IGFBP7 (11715501_s_at) / RFU REEP3 (11722064_at) / Fold change /veh REEP3 (11722064_at) / RFU IGLL1 (11728026_x_at) / Fold change /veh IGLL1 (11728026_x_at): dose or concentration left out as unconfirmed", "conditions": "MV-4-11 cells, 48 hours"}
{"smiles": "Nc1ccc(-c2cccs2)cc1NC(=O)c1ccc2c(c1)cc(C1CC1)n2CCN1CCOCC1", "note": "[ACY-1035]", "values": [{"measurement": "Fold change /veh RGS16 (11720943_a_at)", "result": 0.99}]}
